US4659741A, “β-[2-(halogenobenzyl)-phenoxy]-ethylamine derivatives” (Institut de Recherches Chimiques et Biologiques Appliquees …, priority 1983, dated 1987)
In brackets after ≈: the same amount, converted by molar mass. Entries after “also recorded” stand apart in the source; their conditions may differ. Like-named read-outs stand apart in the source and are kept apart here. Values belong to the compound of their own block, whether it stands above or below them.

Columns and labels:
[1] = tested on: Gram+ bacteriae; conditions: infectious diseases caused by Gram+ bacteriae; cited from earlier work
[2] = cited from earlier work
[3] = tested on: Escherichia coli CIP 54.8; test: Minimal inhibiting concentration (MIC), Gram- strain (Table IV); assay type: cell-based; conditions: CIP54
Excerpt: (§1) A certain number of compounds according to the invention are given non-restrictively by way of illustration in tables I, II and III hereinafter. The minimal inhibiting concentrations (MIC) of these compounds vis-a-vis a Gram+bacteria (Staphylococcus aureus London) a Gram-bacteria (Escherichia coli) and a fungus (Candida albicans) are given hereinafter in table IV. In table V are tabulated the MIC values of two compounds according to the invention which are particularly interesting [compound B 673 (example 26) and compound B 674 (example 29)] vis-a-vis several strains.
(§2) The strains used are those of the catalogues of the "Institut Pasteur" of Paris (abbreviation: CIP), the "Centre International de Distribution de Souches et d'Information sur les Types Microbiens de Lausanne" (abbreviation: La) and the "American Type Culture Collection" (abbreviation: ATCC).
G^- = Gram^- strain: Escherichia coli CIP 54.8

[4] = tested on: Staphylococcus aureus London CIP A.238; test: Minimal inhibiting concentration (MIC), Gram+ strain (Table IV); assay type: cell-based; conditions: for MIC: Staphylococcus aureus
Excerpt: as §1, §2
G^+ = Gram^+ strain: Staphylococcus aureus London CIP A.238

[5] = tested on: Candida albicans CIP 1180; test: Minimal inhibiting concentration (MIC), fungus strain (Table IV); assay type: cell-based; conditions: for MIC C: Candida albicans CIP 1180; for MIC: Candida albicans, CIP1180, Candida albicans CIP 1180
Excerpt: as §1, §2
C = fungus strain: Candida albicans CIP 1180

[6] = Spasmolytic properties
[7] = Toxicity, LD-50 mice (Table VI); conditions: for LD50: mouse, in vivo
[8] = tested on: Streptococcus pyogenes CIP A.241; test: MIC vis-a-vis several strains (Table V); assay type: cell-based; conditions: CIPA.241
Excerpt: as §1, §2

[9] = tested on: Neisseria gonorrhoeae CIP A.52; test: MIC vis-a-vis several strains (Table V); assay type: cell-based; conditions: CIPA.52
Excerpt: as §1, §2

[10] = tested on: Klebsiella pneumoniae la 433; test: MIC vis-a-vis several strains (Table V); assay type: cell-based; conditions: LA433
Excerpt: as §1, §2

[11] = tested on: Neisseria meningitidis CIP 7310; test: MIC vis-a-vis several strains (Table V); assay type: cell-based; conditions: CIP7310
Excerpt: as §1, §2

[12] = tested on: Haemophilus influenzae CIP 5293; test: MIC vis-a-vis several strains (Table V); assay type: cell-based; conditions: CIP5293
Excerpt: as §1, §2

[13] = tested on: Branhamella catarrhalis la 987; test: MIC vis-a-vis several strains (Table V); assay type: cell-based; conditions: Moraxella catarrhalis, LA987
Excerpt: as §1, §2

[14] = tested on: Diplococcus pneumoniae la 209; test: MIC vis-a-vis several strains (Table V); assay type: cell-based; conditions: Streptococcus pneumoniae, LA209
Excerpt: as §1, §2

[15] = tested on: Bacillus subtilis ATCC 6633; test: MIC vis-a-vis several strains (Table V); assay type: cell-based; conditions: ATCC6633
Excerpt: as §1, §2

[16] = tested on: Streptococcus pyogenes CIP 5641; test: MIC vis-a-vis several strains (Table V); assay type: cell-based; conditions: CIP5641
Excerpt: as §1, §2

[17] = tested on: Corynebacterium diphteriae CIP A.102; test: MIC vis-a-vis several strains (Table V); assay type: cell-based; conditions: CIPA.102
Excerpt: as §1, §2

[18] = tested on: Streptococcus faecalis CIP 53.152; test: MIC vis-a-vis several strains (Table V); assay type: cell-based; conditions: Enterococcus faecalis, CIP53
Excerpt: as §1, §2

[19] = tested on: Streptococcus pyogenes la 147; test: MIC vis-a-vis several strains (Table V); assay type: cell-based; conditions: LA147
Excerpt: as §1, §2

[20] = tested on: Staphylococcus aureus ATCC 6538 P; test: MIC vis-a-vis several strains (Table V); assay type: cell-based; conditions: ATCC6538
Excerpt: as §1, §2

[21] = tested on: Listeria monocytogenes CIP 54153; test: MIC vis-a-vis several strains (Table V); assay type: cell-based; conditions: CIP54153
Excerpt: as §1, §2

[22] = tested on: Streptococcus pyogenes CIP 56.42; test: MIC vis-a-vis several strains (Table V); assay type: cell-based; conditions: CIP56
Excerpt: as §1, §2

- MIC [3]: 50 µg/mL (≈ 136 µM)
- MIC [4]: 12.5 µg/mL (≈ 34.1 µM)
Compound: CCN(CC)CCOc1ccc(C)cc1Cc1ccc(Cl)cc1Cl [Example 1]

- MIC G^+ ([4]; listed as Ex 2): 64 μ g/ml
- MIC C ([5]; listed as Ex 2): 64 μ g/ml
Compound: CCc1ccc(OCCN(CC)CC)c(Cc2ccc(Cl)cc2Cl)c1 [Example 2]

- MIC G^+ ([4]; listed as Ex 3): 16 μ g/ml
- MIC [5]: 8 µg/mL (≈ 20.3 µM)
Compound: CCN(CC)CCOc1ccc(C(C)C)cc1Cc1ccc(Cl)cc1Cl [Example 3]

- MIC G^+ ([4]; listed as Ex 4): 32 μ g/ml
- MIC C ([5]; listed as Ex 4): 16 μ g/ml
Compound: CCC(C)c1ccc(OCCN(CC)CC)c(Cc2ccc(Cl)cc2Cl)c1 (centres unmarked) [Example 4]

- MIC [4]: 50 µg/mL (≈ 122 µM)
Compound: CCN(CC)CCOc1ccc(C(C)(C)C)cc1Cc1ccc(Cl)cc1Cl [Example 5, β-[2-(2,4-dichlorobenzyl)-4-tertiobutylphenoxy]-N,N-diethyl-ethylamin]

- MIC [4]: 8 µg/mL (≈ 18.9 µM)
- MIC [5]: 16 µg/mL (≈ 37.9 µM)
Compound: CCN(CC)CCOc1ccc(C(C)(C)CC)cc1Cc1ccc(Cl)cc1Cl [Example 6, β-[2-(2,4-dichlorobenzyl)-4-(1,1-dimethylpropyl)-phenoxy]-N,N-diethylethylamine]

- MIC [3]: 64 µg/mL (≈ 157 µM)
- MIC [4]: 64 µg/mL (≈ 157 µM)
- MIC [5]: 64 µg/mL (≈ 157 µM)
Compound: CCCCc1ccc(OCCN(CC)CC)c(Cc2ccc(Cl)cc2Cl)c1 [Example 7]

- MIC [4]: 25 µg/mL (≈ 53.8 µM)
Compound: CCN(CC)CCOc1ccc(C(C)(C)CC(C)(C)C)cc1Cc1ccc(Cl)cc1Cl [Example 9]

- MIC G^+ ([4]; listed as Ex 11): 8 μ g/ml
- MIC C ([5]; listed as Ex 11): 8 μ g/ml
Compound: CCc1ccc(OCCN(CC)CC)c(Cc2ccc(Cl)cc2Cl)c1 [Example 11]
- spasmolytic properties [6]: beneficial spasmolytic properties

- MIC G^+ ([4]; listed as Ex 12): 4 μ g/ml
- MIC C ([5]; listed as Ex 12): 4 μ g/ml
Compound: CCN(CC)CCOc1ccc(C(C)C)cc1Cc1ccc(Cl)cc1Cl [Example 12]
- spasmolytic properties ([6]; listed as B 805): beneficial spasmolytic properties; also recorded: The most interesting compound, as spasmolytic agent

- MIC G^+ ([4]; listed as Ex 13): 8 μ g/ml
- MIC C ([5]; listed as Ex 13): 0.5 μ g/ml
Compound: CCC(C)c1ccc(OCCN(CC)CC)c(Cc2ccc(Cl)cc2Cl)c1 (centres unmarked) [Example 13]
- spasmolytic properties [6]: beneficial spasmolytic properties

- MIC [3]: 64 µg/mL
- MIC [4]: 8 µg/mL
- MIC [5]: 4 µg/mL
Compound: CCN(CC)CCOc1ccc(C(C)(C)CC)cc1Cc1ccc(Cl)cc1Cl.Cl [Example 14, β-[2-(2,4-dichlorobenzyl)-4-(1,1-dimethylpropyl)-phenoxy]-N,N-diethylethylamine hydrochloride]
- spasmolytic properties [6]: beneficial spasmolytic properties

- MIC G^+ ([4]; listed as Ex 15): 16 μ g/ml
Compound: CCN(CC)CCOc1ccc(C(C)(C)CC(C)(C)C)cc1Cc1ccc(Cl)cc1Cl [Example 15]
- spasmolytic properties [6]: beneficial spasmolytic properties

- MIC [3]: 64 µg/mL
- MIC [4]: 0.125 µg/mL
- MIC [5]: 0.25 µg/mL
Compound: CC[N+](C)(CC)CCOc1ccc(C(C)(C)CC(C)(C)C)cc1Cc1ccc(Cl)cc1Cl [Example 22]

- MIC [3]: 16 µg/mL
- MIC [4]: 0.015 µg/mL
- MIC [5]: 1 µg/mL
Compound: CCCC[N+](CC)(CC)CCOc1ccc(C(C)(C)CC(C)(C)C)cc1Cc1ccc(Cl)cc1Cl [Example 24]

- MIC [4]: 0.03 µg/mL
- MIC [5]: 1 µg/mL
Compound: CC[N+](CC)(CCOc1ccc(C(C)(C)CC(C)(C)C)cc1Cc1ccc(Cl)cc1Cl)Cc1ccccc1 [Example 33]

More lines, now with the values behind:

Compound: CC(C)(C)CC(C)(C)c1ccc(O)c(Cc2ccc(Cl)cc2Cl)c1 [B.11, 2-(2,4-dichlorobenzyl)-4-(1,1,3,3-tetramethylbutyl)-phenol]
- effectiveness in the treatment of infectious diseases [1]: particularly effective in the treatment of infectious diseases caused by Gram+ bacteriae
- water solubility / dispersibility [2]: not naturally water soluble nor water dispersible

Compound: CCCCCCc1ccc(OCCN(CC)CC)c(Cc2ccc(Cl)cc2Cl)c1 [Example 8]
- MIC [3]: 64 µg/mL (≈ 147 µM)
- MIC [4]: 64 µg/mL (≈ 147 µM)
- MIC [5]: 64 µg/mL (≈ 147 µM)

Compound: CC(C)c1ccc(OCCN(C)C)c(Cc2ccc(Cl)c(Cl)c2)c1 [Example 10]
- MIC [3]: 64 µg/mL (≈ 175 µM)
- MIC [4]: 16 µg/mL (≈ 43.7 µM)

Compound: CCC(C)(C)c1ccc(OCC[N+](C)(CC)CC)c(Cc2ccc(Cl)cc2Cl)c1.[I-] [Example 21, N,N-diethyl-N-{2-[2-(2,4-dichlorobenzyl)-4-(1,1-dimethylpropyl)-phenoxy]-ethyl}-N-methylammonium iodide]
- MIC [3]: 8 µg/mL
- MIC [4]: 0.125 µg/mL
- MIC [5]: 0.5 µg/mL

Compound: CCCC[N+](CC)(CC)CCOc1ccc(C(C)(C)CC)cc1Cc1ccc(Cl)cc1Cl.[Br-] [Example 23, N,N-diethyl-N-{2-[2-(2,4-dichlorobenzyl)-4-(1,1-dimethylpropyl)-phenoxy]-ethyl}-N-butylammonium bromide]
- MIC [3]: 4 µg/mL
- LD50 [7]: > 1000 mg/kg
- MIC [4]: 0.06 µg/mL
- MIC [5]: 0.25 µg/mL

Compound: CC[N+](CC)(CCOc1ccc(C)cc1Cc1ccc(Cl)cc1Cl)Cc1ccccc1 [Example 26]
- MIC [8]: 0.78 µg/mL
- MIC [9]: 0.78 µg/mL
- MIC [10]: 25 µg/mL
- MIC [11]: 0.78 µg/mL
- MIC [12]: 0.78 µg/mL
- MIC [13]: 0.78 µg/mL
- MIC [14]: 1.56 µg/mL
- MIC [15]: 1.56 µg/mL
- MIC [16]: 0.78 µg/mL
- MIC [17]: 25 µg/mL
- MIC [18]: 3.12 µg/mL
- MIC [19]: 0.78 µg/mL
- MIC [20]: 0.78 µg/mL
- MIC [21]: 1.56 µg/mL
- MIC [22]: 0.78 µg/mL
- MIC [3]: 32 µg/mL
- LD50 [7]: > 1000 mg/kg
- MIC [4]: 0.25 µg/mL
- MIC [5]: 4 µg/mL

Compound: CCc1ccc(OCC[N+](CC)(CC)Cc2ccccc2)c(Cc2ccc(Cl)cc2Cl)c1 [Example 27]
- MIC [3]: 8 µg/mL
- LD50 [7]: 850 mg/kg
- MIC [4]: 0.125 µg/mL
- MIC [5]: 0.5 µg/mL

Compound: CC[N+](CC)(CCOc1ccc(C(C)C)cc1Cc1ccc(Cl)cc1Cl)Cc1ccccc1 [Example 28]
- MIC [3]: 8 µg/mL
- MIC [4]: 0.015 µg/mL
- MIC [5]: 0.25 µg/mL

Compound: CC[N+](CC)(CCOc1ccc(C(C)(C)C)cc1Cc1ccc(Cl)cc1Cl)Cc1ccccc1 [Example 29, N,N-diethyl-N-{2-[2-(2,4-dichlorobenzyl)-tertiobutylphenoxy]-ethyl}-N-benzylammonium chloride]
- MIC [8]: 0.78 µg/mL
- MIC [9]: 0.78 µg/mL
- MIC [10]: 6.25 µg/mL
- MIC [11]: 0.78 µg/mL
- MIC [12]: 0.78 µg/mL
- MIC [13]: 0.78 µg/mL
- MIC [14]: 0.78 µg/mL
- MIC [15]: 0.78 µg/mL
- MIC [16]: 0.78 µg/mL
- MIC [17]: 3.12 µg/mL
- MIC [18]: 0.78 µg/mL
- MIC [19]: 0.78 µg/mL
- MIC [20]: 0.78 µg/mL
- MIC [21]: 0.78 µg/mL
- MIC [22]: 0.78 µg/mL
- MIC [3]: 4 µg/mL
- LD50 [7]: > 1000 mg/kg
- MIC [4]: 0.015 µg/mL
- MIC [5]: 0.125 µg/mL

Compound: CCC(C)(C)c1ccc(OCC[N+](CC)(CC)Cc2ccccc2)c(Cc2ccc(Cl)cc2Cl)c1 [Example 30]
- MIC [3]: 4 µg/mL
- LD50 [7]: > 1000 mg/kg
- MIC [4]: 0.004 µg/mL
- MIC [5]: 0.25 µg/mL

Compound: CCCCc1ccc(OCC[N+](CC)(CC)Cc2ccccc2)c(Cc2ccc(Cl)cc2Cl)c1 [Example 31]
- MIC [3]: 4 µg/mL
- LD50 [7]: > 1000 mg/kg
- MIC [4]: 0.031 µg/mL
- MIC [5]: 0.125 µg/mL

Compound: CCCCCCc1ccc(OCC[N+](CC)(CC)Cc2ccccc2)c(Cc2ccc(Cl)cc2Cl)c1 [Example 32]
- MIC [3]: 16 µg/mL
- MIC [4]: 0.125 µg/mL
- MIC [5]: 0.5 µg/mL

Compound: CCCCCCCCCCCCCCCC[N+](C)(C)C [Example A-2, cetrymonium chloride, reference compound]
- LD50 [7]: 750 mg/kg

Compound: benzalkonium chloride [Example A-1, reference compound]
- LD-50 mice ([7]; mice, route not given): 550 mg/kg
